Values quoted from earlier work, collected in US20220313684A1, “PHARMACEUTICAL COMPOSITION COMPRISING IRINOTECAN FREE BASE FOR ORAL ADMINISTRATION” (DAE HWA PHARMA. CO., LTD., priority 2019, published 2022).

Conditions: oral administration of irinotecan; reported (EP 2328557)

- bioavailability upon oral administration: 9%
Structure (SMILES): CCc1c2c(nc3ccc(OC(=O)N4CCC(N5CCCCC5)CC4)cc13)-c1cc3c(c(=O)n1C2)COC(=O)[C@]3(O)CC [irinotecan, (S)-4,11-diethyl-3,4,12,14-tetrahydro-4-hydroxy-3,14-dioxo-1H-pyrano[3′,4′:6,7]-indolizino[1,2-b]quinolin-9-yl [1,4′bipiperidine]-1′-carboxylate]
